{"source": "paper PMC11467737", "about": "“Osteocalcin binds to a GPRC6A Venus fly trap allosteric site to positively modulate GPRC6A signaling” (FASEB BioAdvances, 2024)", "key": {"[1]": {"target": "T1, human GPRC6A isoform 3 (Homo sapiens, UniProt Q5T6X5)", "T1 construct": "expressed in transfected cells; host or cells: HEK-293", "T1 sequence (Q5T6X5 19-855 isoform Q5T6X5-3 limits assumed)": "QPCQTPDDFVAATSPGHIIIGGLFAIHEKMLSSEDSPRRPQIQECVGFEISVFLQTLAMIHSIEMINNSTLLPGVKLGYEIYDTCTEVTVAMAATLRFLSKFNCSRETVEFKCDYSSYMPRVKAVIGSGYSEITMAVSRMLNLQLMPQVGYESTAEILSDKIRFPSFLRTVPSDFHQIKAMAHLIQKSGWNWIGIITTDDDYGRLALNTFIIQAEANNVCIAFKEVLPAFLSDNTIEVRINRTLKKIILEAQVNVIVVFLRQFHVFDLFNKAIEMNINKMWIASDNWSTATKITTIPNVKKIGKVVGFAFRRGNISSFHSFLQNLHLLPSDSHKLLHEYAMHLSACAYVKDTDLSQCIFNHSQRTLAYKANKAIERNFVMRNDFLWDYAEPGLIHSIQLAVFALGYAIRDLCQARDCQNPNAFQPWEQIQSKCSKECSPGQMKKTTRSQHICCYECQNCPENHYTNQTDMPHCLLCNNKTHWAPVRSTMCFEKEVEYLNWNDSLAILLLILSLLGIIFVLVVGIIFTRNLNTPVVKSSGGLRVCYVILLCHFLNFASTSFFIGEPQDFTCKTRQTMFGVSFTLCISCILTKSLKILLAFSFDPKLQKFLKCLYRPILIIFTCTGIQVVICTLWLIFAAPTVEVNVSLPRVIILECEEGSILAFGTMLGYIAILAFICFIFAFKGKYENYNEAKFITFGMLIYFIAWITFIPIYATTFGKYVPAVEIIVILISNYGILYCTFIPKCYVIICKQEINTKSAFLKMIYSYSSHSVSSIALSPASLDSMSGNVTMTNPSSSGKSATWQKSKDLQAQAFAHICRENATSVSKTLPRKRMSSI", "experiment": "cAMP accumulation in HEK-293 cells transfected with human GPRC6A isoform 3", "format": "cell-based", "settings": "HEK-293 transfected with GPRC6A isoform 3, 40 min", "experimental": "(§1) HEK‐293 transfected with human GPRC6A isoform cDNA plasmids cells (10^5 cells/well)[30] were cultured in 24‐well plates in DMEM supplemented with 10% fetal bovine serum and 1% penicillin/streptomycin (100 U/mL of penicillin and 100 μg/mL of streptomycin) for 48 h followed by 4 h incubation in DMEM/F12 containing 0.1% BSA and 0.5 mM IBMX to achieve quiescence and preventing cAMP degradation. Quiescent cells were treated with vehicle control, various ligands at concentration as indicated for 40 min at 37°C. Then, the reaction was stopped, and the cells lysed with 0.5 mL 0.1 N HCl. cAMP levels were measured by using Cyclic AMP EIA kit (Cayman Chemical; Ann Arbor, MA, USA) following the manufacture's protocol."}, "[2]": {"target": "T2, human GPRC6A isoform 2 (Homo sapiens, UniProt Q5T6X5)", "T2 construct": "expressed in transfected cells; host or cells: HEK-293", "T2 sequence (Q5T6X5 19-751 isoform Q5T6X5-2 limits assumed)": "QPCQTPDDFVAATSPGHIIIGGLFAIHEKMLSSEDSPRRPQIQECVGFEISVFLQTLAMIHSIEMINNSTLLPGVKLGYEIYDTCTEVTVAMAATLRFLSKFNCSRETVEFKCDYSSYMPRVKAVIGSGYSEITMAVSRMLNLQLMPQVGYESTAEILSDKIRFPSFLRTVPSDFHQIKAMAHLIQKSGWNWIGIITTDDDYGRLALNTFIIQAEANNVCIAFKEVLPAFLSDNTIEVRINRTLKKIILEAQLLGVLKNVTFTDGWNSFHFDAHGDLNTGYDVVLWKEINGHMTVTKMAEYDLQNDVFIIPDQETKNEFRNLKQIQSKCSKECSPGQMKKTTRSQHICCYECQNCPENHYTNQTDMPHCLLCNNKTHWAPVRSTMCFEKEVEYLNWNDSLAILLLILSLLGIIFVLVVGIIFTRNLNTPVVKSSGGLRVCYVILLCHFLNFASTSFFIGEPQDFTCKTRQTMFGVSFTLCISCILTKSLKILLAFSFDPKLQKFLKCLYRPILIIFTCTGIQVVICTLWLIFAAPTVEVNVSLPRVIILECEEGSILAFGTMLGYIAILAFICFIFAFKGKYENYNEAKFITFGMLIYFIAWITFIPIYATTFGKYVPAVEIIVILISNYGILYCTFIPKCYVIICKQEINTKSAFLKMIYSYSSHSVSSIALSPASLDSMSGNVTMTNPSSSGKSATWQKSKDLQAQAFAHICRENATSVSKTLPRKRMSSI", "experiment": "cAMP accumulation in HEK-293 cells transfected with human GPRC6A isoform 2", "format": "cell-based", "settings": "HEK-293 transfected with GPRC6A isoform 2; presence of 1 mM calcium; 40 min; Figure 2A", "experimental": "as §1"}, "[3]": {"target": "T3, human GPRC6A isoform 1 (Homo sapiens, UniProt Q5T6X5)", "T3 construct": "expressed in transfected cells; host or cells: HEK-293, pcDNA3-hGPRC6A", "T3 sequence (Q5T6X5 19-926)": "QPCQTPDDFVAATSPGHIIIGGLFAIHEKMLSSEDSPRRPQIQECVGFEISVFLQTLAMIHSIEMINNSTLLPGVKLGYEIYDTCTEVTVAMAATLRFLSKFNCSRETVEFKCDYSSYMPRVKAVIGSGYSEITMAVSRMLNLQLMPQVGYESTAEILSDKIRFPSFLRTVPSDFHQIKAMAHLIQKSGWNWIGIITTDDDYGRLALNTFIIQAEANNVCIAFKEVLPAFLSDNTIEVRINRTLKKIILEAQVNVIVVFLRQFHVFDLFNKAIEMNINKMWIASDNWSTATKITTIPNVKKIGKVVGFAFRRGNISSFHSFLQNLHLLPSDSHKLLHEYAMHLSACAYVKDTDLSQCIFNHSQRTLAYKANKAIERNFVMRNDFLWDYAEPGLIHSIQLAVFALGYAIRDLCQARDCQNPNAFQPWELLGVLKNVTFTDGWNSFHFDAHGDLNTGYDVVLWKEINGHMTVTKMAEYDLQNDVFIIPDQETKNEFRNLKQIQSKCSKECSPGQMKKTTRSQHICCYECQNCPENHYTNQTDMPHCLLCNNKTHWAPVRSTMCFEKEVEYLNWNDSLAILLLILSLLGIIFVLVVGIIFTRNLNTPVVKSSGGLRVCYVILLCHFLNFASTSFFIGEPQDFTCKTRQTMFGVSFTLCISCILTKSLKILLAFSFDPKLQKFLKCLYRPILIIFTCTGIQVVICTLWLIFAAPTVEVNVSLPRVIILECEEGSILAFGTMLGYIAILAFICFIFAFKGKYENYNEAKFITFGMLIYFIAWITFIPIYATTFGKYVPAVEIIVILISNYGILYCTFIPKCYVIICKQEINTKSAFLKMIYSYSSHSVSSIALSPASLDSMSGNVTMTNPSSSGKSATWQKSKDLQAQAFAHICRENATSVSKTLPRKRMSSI", "experiment": "cAMP accumulation in HEK-293 cells transfected with human GPRC6A isoform 1 (wild-type, full length)", "format": "cell-based", "settings": "fragments at 20 nM; HEK-293 with pcDNA3-hGPRC6A; 40 min; Figure 3C / S5C", "experimental": "as §1"}, "[4]": {"target": "T3, human GPRC6A isoform 1", "experiment": "ERK activation (phospho-ERK/total ERK ELISA) in HEK-293 cells transfected with human GPRC6A isoform 1 (wild-type)", "format": "cell-based", "settings": "fragments at 20 nM; HEK-293 with pcDNA3-hGPRC6A; 15 min; Figure 3B / S5B", "experimental": "All culture reagents were from Invitrogen (Waltham, MA, USA). Human embryonic kidney HEK‐293 cells were obtained from American Type Culture Collection and cultured in DMEM medium supplemented with 10% fetal bovine serum and 1% Penicillin/Streptomycin (P/S). Briefly, HEK‐293 cells transfected with/without human GPRC6A isoforms cDNA plasmids were starved by overnight incubation in serum‐free DMEM/F12 containing 0.1% bovine serum albumin (BSA) and stimulated with various ligands at different doses. […]"}, "[5]": {"system": "mouse model", "design": "method as in PMID 32147363", "settings": "oral or intraperitoneal administration to a mouse model; cited from earlier work"}, "[6]": {"system": "GPRC6A", "design": "method as in PMID 32147363", "settings": "cited from earlier work"}}}
{"compound": "N=C(N)NCCC[C@H](N)C(=O)O", "note": "[L‐Arg, L‐Arginine]", "values": [{"measurement": "L-Arg stimulation of cAMP accumulation", "setting": "[1]; presence of 1 mM calcium, Figure 2A", "value": "retained responsiveness"}, {"measurement": "L-Arg stimulation of cAMP accumulation", "setting": "[2]", "value": "loss of L‐Arg stimulation of cAMP"}]}
{"compound": "C[C@]12CC[C@H]3[C@@H](CCC4=CC(=O)CC[C@@]43C)[C@@H]1CC[C@@H]2O", "note": "[testosterone]", "values": [{"measurement": "Testosterone (T) activation, cAMP accumulation", "setting": "[1]; Figure S4", "value": "loss responsive"}]}
{"compound": "APVPYPDPLEPR [Ocn 8–19, synthesized human Ocn fragment, 12 aa]", "values": [{"measurement": "cAMP accumulation by synthesized human Ocn fragments", "setting": "[3]", "value": "activated GPRC6A"}, {"measurement": "ERK phosphorylation by synthesized human Ocn fragments", "setting": "[4]", "value": "activated GPRC6A"}]}
{"compound": "WLGAPVPYPDPLEPR", "values": [{"measurement": "Effect on fatty liver disease and insulin resistance", "setting": "[5]", "value": "improve fatty liver disease and insulin resistance"}, {"measurement": "Activation of GPRC6A in vitro", "setting": "[6]", "value": "activate GPRC6A in vitro"}]}
